Laboratory results published in patent US4952234A, “Imidazoledione compounds useful as herbicides” (Sankyo Company Limited, priority 1985, dated 1990).

Key:
[1] = tested on: mice; details: mouse, in vivo, iv, 100 mg/kg
Method: A solution of Substance No. 51262 was administered intravenously to mice in an amount of 100 mg/kg bodyweight.

[2] = tested on: various weeds; experiment: Herbicidal activity against weeds, pre- and post-emergence (summary statement); assay type: in vivo
[3] = tested on: purple nutsedge; experiment: Plant growth retardation, purple nutsedge; assay type: in vivo, Cyperus rotundus; details: 500 ppm; after 2 weeks vs untreated control
Excerpt: (§1) A plastic pot was filled with upland soil to provide a surface area of soil of 150 cm^2. Seeds of paddy field rice, soybeans corn and cotton were sowed, Tubers of the perennial weed, purple nutsedge (Cyperus rotundus) were then planted into each pot and the seeds and tubers were covered with the same soil. The pots were placed in a greenhouse for 10 days, after which aqueous solutions of Substance No. 51262 (prepared as described hereafter in Example 11) to the required concentrations were mixed with 0.03% v/v of the spreader Gramin S. 5 ml of the resulting solution were sprayed onto each pot. The growth of the resulting plants were compared after 2 weeks with a control which had not been so treated.

[4] = Solubility; assay type: physicochemical
Excerpt: (j) solubility: soluble in water, methanol and ethanol; insoluble in ethyl acetate and acetone;

[5] = tested on: paddy field rice, soybeans, corn, cotton and purple nutsedge; experiment: Plant growth retardation; assay type: in vivo
Excerpt: as §1

[6] = tested on: Komatsuna seeds; experiment: Inhibitory effect on the germination of Komatsuna seeds; assay type: in vivo, Brassica rapa (L) var. Komatsuna Hara; details: Brassica rapa, 72 h; 28° C. for 3 days; read-out: minimum inhibitory concentration against the germination of Komatsuna seeds
Method: Sterilized cotton was placed on the bottom of a test tube (10 mm×100 mm) to a height of about 5 mm, and the cotton was then soaked with 0.5 ml of either distilled water or of an aqueous solution containing various concentrations of Substance No. 51262. About 10 seeds of the plant Komatsuna [Brassica rapa (L) var. Komatsuna Hara] were placed into each test tube and allowed to stand at 28° C. for 3 days to determine the inhibitory concentration of Substance No. 51262, assessed by the presence or absence of germination.

For `O=C1NC(=O)[C@@]2(N1)O[C@H](CO)[C@@H](O)[C@H]2O` [Substance No. 51262], the abnormalities observed [1] was “no abnormalities were detected”, the herbicidal activity [2] was “excellent herbicidal activity” and the “growth inhibition of the shoot and rhizome” value [3] was “almost complete growth inhibition”. The solubility ([4]; acetone) was “insoluble”, the solubility ([4]; ethanol) was “soluble” and the solubility ([4]; ethyl acetate) was “insoluble”. The solubility ([4]; methanol) was “soluble”, the solubility ([4]; water) was “soluble” and the growth retardation ([5]; 125 ppm, all plants, after 2 weeks vs untreated control) was “about 50%”. For the same compound, the plant growth retardation ([5]; summary statement) was “can retard plant growth without killing the plants” and the minimal effective concentration [6] was 3.13 µg/mL.
